{
  "source": "patent US20220089540A1",
  "about": "(Board of Trustees of Michigan State University, priority 2019, published 2022)",
  "key": {"tumors of PyMT mice": {"system": "tumors of PyMT mice", "assay": "PyMT mice, 15-day protocol with or without anti-PD-L1 antibodies", "assay_type": "in vivo, mouse", "protocol": "To evaluate if LG268 treatment would have immunomodulatory effects, PyMT mice with a tumor volume of 32-64 mm^3 were treated with LG268 (100 mg/kg of diet) or control diet for 14 days (FIG. 7A). Mice were euthanized at day 15, and tumor, intact mammary gland and spleen were analyzed by flow cytometry, immunohistochemistry and immunoblotting (whole tumor lysates). At day 15, mice treated with LG268 presented higher levels of PD-L1 when compared with control mice (FIG. 7D-7E).\nThe inventors tested whether the combination of an immune checkpoint inhibitor and LG268 for the treatment of PyMT tumors would further increase the infiltration of cytotoxic CD8 T cells. PyMT mice with 32-64 mm3 mice were treated by intraperitoneal injection with anti-PD-L1 (40 μg/mouse) or isotype control antibodies on days 3, 7 and 11, in combination with LG268 or control diet (FIG. 7A)."}, "lung tumors of A/J mice": {"system": "lung tumors of A/J mice", "assay": "Vinyl carbamate-induced (Kras) lung cancer in A/J mice", "assay_type": "in vivo, mouse", "protocol": "To evaluate the effects of LG268, with and without other chemotherapeutic agents, female A/J mice were injected with a weekly dose of vinyl carbamate for twelve weeks to induce lung tumors of between 0.5 and 1 mm in diameter. A/J mice were randomized and treated with either control diet or rexinoids fed in the diet (100 mg/kg diet). One week after the treatment diets started, mice were injected with 6 cycles of carboplatin (50 mg/kg i.p.), paclitaxel (15 mg/kg i.p.), or a combination thereof, given every other week. At the end of the studies, lungs were harvested en bloc and inflated with buffered formalin (NBF); liver and plasma were collected to determine drug levels and lipid concentrations. Step sectioning (200 μm between sections) of the left lung started at the medial hilar surface, and sections were stained with hematoxylin and eosin. The number, size, and histopathology of randomized, coded tumors were assessed on two separate sections of each lung by two independent investigators. Classification of the tumors as low, medium, or high grade was based on previously published histologic and nuclear criteria. The efficacy of other rexinoids (e.g., MSU 42011) for treatment of lung cancer, alone and in combination with standard of care chemotherapy (carboplatin and paclitaxel), is currently being evaluated in this preclinical model."}, "FOXP3": {"system": "FOXP3", "assay": "FOXP3 mRNA in isolated spleen CD4 T cells skewed towards Tregs", "details": "LG268 added for 4 days"}, "RXR": {"target": "RXR", "details": "read-out: Kd for RXR; cited from earlier work"}, "PD-L1": {"system": "PD-L1", "assay": "PD-L1 in THP-1 cells stimulated with SK-BR-3 conditioned media (flow cytometry)", "assay_type": "cell-based, human", "details": "24 hours", "protocol": "THP-1 (ATCC) cells were cultured in RPMI supplemented with 5% FBS, and SK-BR-3 (ATCC) cells were cultured in DMEM supplemented with 10% FBS. THP-1 cells were cultured at 50000/well in a 6 well plate for 24 hours to determine PD-L1 levels with conditioned media from SK-BR-3 cells. Culturing SK-BR-3 cells at 60-70% confluence for 24 hours generated conditioned media; media was then collected and centrifuged at 900 rpm for 5 minutes to eliminate any cell debris. THP-1 cells were then plated at 100000 cells/well with the conditioned media, LG268 was added simultaneously.\nFor PD-L1 staining, RAW 264.7 cells were plated at 25000 cells/ml in 6 well plates for 24 hours before adding conditioned media from E18-14C-27 and LG268. RAW 264.7 cells were cultured for additional 24 hours with E18-14C-27 conditioned media and LG268. […] THP-1 cells were stained and analyzed for the levels of PD-L1 following the same protocol."}, "[1]": {"system": "inducible nitric oxide synthase (iNOS)", "assay": "iNOS suppression / NO assay in LPS-stimulated macrophages or RAW264.7 cells (Griess reaction)", "assay_type": "cell-based, mouse", "details": "at 100 nM; comparators of Table 3", "outline": "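RAW264.7 cells or macrophages incubated with rexinoids (300 nM, or 100 nM/300 nM, or a concentration series) and stimulated with 1–2 ng/ml LPS for 24 h. Nitric oxide released into medium measured by Griess reaction; values given as percent of LPS-stimulated control, % inhibition, or IC50.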"}, "E18-14C-27C cancer cells": {"system": "E18-14C-27C cancer cells", "assay": "PD-1 and PD-L1 expression in E18-14C-27C cancer cells", "assay_type": "cell-based, mouse", "details": "72 hours", "protocol": "RAW 264.7 mouse macrophage-like (ATCC) and E18-14C-27 (Wu et al., Cancer Res. 62, 6376-6380 (2002)) cells were cultured in DMEM supplemented with 10% fetal bovine serum (FBS). RAW 264.7 cells were cultured at 50000/well in a 6 well plate for 24 hours to determine PD-L1 levels. E18-14C-27 cells were cultured for 72 hours in the presence of LG268 for protein levels. Conditioned media was collected from E18-14C-27 at 60-70% confluence for 24 hours; media was then collected and centrifuged at 900 rpm for 5 minutes to eliminate any cell debris.\nTo determine if these changes occurred in the tumor cells or in the macrophages, E18-14C-27C and RAW 264.7 cell lines were treated with LG268. […] Similar observations were made in human THP-1 monocytic cells stimulated with conditioned media from human HER2 positive SK-BR-3 breast cancer cells and treated with LG268 or bexarotene for 24 hours (FIG. 5E-5F)."}},
  "data": [
    {"molecule": "Cc1cc2c(cc1C1(c3ccc(C(=O)O)cn3)CC1)C(C)(C)CCC2(C)C", "note": "[LG268]", "values": [
      {"measurement": "PD-L1 levels in tumors vs control", "setting": "tumors of PyMT mice; 100 mg/kg diet, day 15", "result": "higher levels"},
      {"measurement": "immune cell populations infiltrating to the tumors", "setting": "tumors of PyMT mice; LG268 alone, day 15", "result": "did not induce any changes"},
      {"measurement": "spleen weight vs control diet", "setting": "tumors of PyMT mice; LG268 only", "result": "significant decrease"},
      {"measurement": "average number of lung tumors", "setting": "lung tumors of A/J mice; LG268 100 mg/kg diet 12 weeks, C 50 mg/kg i.p., P 15 mg/kg i.p., 6 injections, control 3.4±0.25", "result": "2.2±0.28"},
      {"measurement": "average tumor size", "setting": "lung tumors of A/J mice; control 0.58±0.09 mm^3", "result": "0.24±0.03", "unit": "mm^3"},
      {"measurement": "average tumor burden", "setting": "lung tumors of A/J mice; control 1.99±0.34 mm^3", "result": "0.52±0.12", "unit": "mm^3"},
      {"measurement": "percentage of high grade tumors", "setting": "lung tumors of A/J mice; control 71%", "result": 52, "unit": "%"},
      {"measurement": "decrease of average tumor size vs controls", "setting": "lung tumors of A/J mice; mouse, in vivo", "result": 59, "unit": "%"},
      {"measurement": "diminution of average tumor burden vs control", "setting": "lung tumors of A/J mice; mouse, in vivo", "result": 74, "unit": "%"},
      {"measurement": "reduction of FOXP3 mRNA expression vs vehicle control", "setting": "FOXP3", "result": 40, "unit": "%"},
      {"measurement": "Kd", "setting": "RXR", "result": "[…]"},
      {"measurement": "PD-L1 levels in THP-1 human macrophages", "setting": "PD-L1", "result": "increases"},
      {"measurement": "iNOS", "setting": "[1]", "result": "15-30% at 100 nM"},
      {"measurement": "PD-L1 expression", "setting": "E18-14C-27C cancer cells; flow cytometry", "result": "did not change"},
      {"measurement": "PD-1 expression", "setting": "E18-14C-27C cancer cells; western blot", "result": "decreased"}
    ]}
  ]
}
